Measurements reported in patent publication US20260345458A1, “Pharmaceutical, Dermatological or Cosmetic Compounds and Compositions for Reducing Melanin Synthesis, Stimulating Type I Collagen Production, Skin Depigmentation and/or Promoting a Skin Anti-Aging Effect in an Individual or Animal, Uses and Methods” (Chemyunion Ltda, priority 2022, published 2026).
Where a SMILES comes first, the peptide text is derived from it. The star is where a group is joined. Palmitoyl = CCCCCCCCCCCCCCCC(=O)*

Key:
rats = conditions: cited from earlier work
melanin synthesis = conditions: as reported in prior patent documents; cited from earlier work
[1] = test system: type I collagen in human skin fragments; assay: Collagen synthesis stimulation in human skin fragments (ex vivo explants, immunofluorescence); type: cell-based; conditions: 72 h, ex vivo human skin explants (n=5), vs placebo, **p<0.01 (FIG. 3)
Text: (§1) FIG. 3. Semi-quantification of type I collagen levels. Data obtained by recording images of histological sections of human skin fragments previously treated with a formulation without active ingredient (Placebo) and treated with the same formulation containing the peptide SEQ ID No. 1 (Pal-Gln-His-Trp-Val-OH) (at 50 ppm or 100 ppm). **p<0.01 compared to the placebo group.
FIG. 4. Representative images of the effect of peptide SEQ ID No. 1 (Pal-Gln-His-Trp-Val-OH) on the synthesis of type I collagen in ex vivo skin fragments-immunofluorescence (400× magnification).
Example 2: Evaluation of Collagen Synthesis Stimulation in Human Skin Fragments
Skin explants (n=5) obtained from a surgical procedure performed by the ophthalmologic plastic surgery clinic were treated for 72 h with a formulation containing the peptide SEQ ID No. 1 (Pal-Gln-His-Trp-Val-OH) (at 50 ppm or 100 ppm) and with the same formulation without the addition of the peptide (placebo). After incubation with the test products as described above, the skin fragments were fixed in 4% paraformaldehyde (pH 7.4) for 24 h. […] The skin sections were then subjected to the specific labeling process for type I collagen for subsequent immunofluorescence analysis; the records were obtained using a fluorescence optical microscope coupled to a photographic camera.

[2] = test system: melanin synthesis in human skin fragments; assay: Inhibition of melanin synthesis in human skin fragments (ex vivo explants, Fontana Masson staining); type: cell-based; conditions: 50 ppm; 72 h; ex vivo human skin explants (n=5); vs placebo; **p<0.01 (FIG. 1)
Text: as §1, with “1:” for “3.”, “melanin pigment” for “type I collagen”
FIG. 2: Representative images of the effect of peptide SEQ ID No. 1 (Pal-Gln-His-Trp-Val-OH) on melanin synthesis in ex vivo skin fragments-Fontana Masson staining (400× magnification).
Example 1: Evaluation of Inhibition of Melanin Synthesis in Human Skin Fragments
Skin explants (n=5), obtained from a surgical procedure performed by an ophthalmological plastic surgery clinic, were treated for 72 h with a formulation containing the peptide SEQ ID No. 1 (Pal-Gln-His-Trp-Val-OH), (at 50 ppm or 100 ppm) and with the same formulation without the addition of the peptide (placebo).
After incubation with the test products as described above, the skin fragments were fixed in 4% paraformaldehyde (pH 7.4) for 24 hours. […]
Subsequently, the slides were analyzed and recorded using an optical microscope coupled to a camera.

skin = conditions: cited from earlier work; for ochronosis: skin becomes more pigmented than at the beginning of treatment

O=c1cc(CO)occ1O [Kojic acid]
promotion of cancer (rats): has been found to promote the development of liver and thyroid cancer in rats

CCCCCCCCCCCCCCCC(=O)N[C@@H](Cc1ccc(O)cc1)C(=O)N[C@@H](Cc1ccc(O)cc1)C(=O)N[C@@H](CCSC)C(N)=O [Pal-TyrTyrMet-NH2] (Palmitoyl-Tyr-Tyr-Met-NH2)
activity on melanin synthesis / skin lightening (melanin synthesis): stimulating melanin synthesis

CCCCCCCCCCCCCCCC(=O)N[C@@H](CCC(N)=O)C(=O)N[C@@H](Cc1c[nH]cn1)C(=O)N[C@@H](Cc1c[nH]c2ccccc12)C(=O)N[C@H](C(=O)O)C(C)C [SEQ ID No. 1, Pal-Gln-His-Trp-Val-OH] (Palmitoyl-QHWV-OH)
stimulation of collagen I production compared to the placebo group ([1]; 50 ppm): 63%
increase in protein (type I collagen) synthesis compared to the placebo group ([1]; 100 ppm): 71%
reduction of melanin production compared to the placebo group [2]: 66%

OC[C@H]1O[C@@H](Oc2ccc(O)cc2)[C@H](O)[C@@H](O)[C@@H]1O [arbutin]
ochronosis (skin): can cause ochronosis

Oc1ccc(O)cc1 [hydroquinone]
ochronosis (skin): can cause ochronosis
effect on extracellular matrix fibers, adrenal glands, thyroid physiology and skin firmness (skin; topical application, studies suggest): can disrupt the fibers of the extracellular matrix (especially collagen and elastin), leading to changes in the adrenal glands and thyroid physiology, as well as loss of skin firmness

Caffeoyl-GlnHisGlyVal-OH
activity on melanin synthesis / skin lightening (melanin synthesis): has skin lightening activity due to its anti-inflammatory activity
